The test system of one assay is levodopa-primed monkeys. The method, then:
Levodopa administration: Monkeys were administered levodopa/carbidopa (5 mg/kg and 1.25 mg/kg, respectively), prepared by crushing a tablet of Sinemet® CR 100/25 (DuPont Pharma) and dissolving it in water. This dose of levodopa is within the range of that prescribed to Parkinson's disease patients. The monkeys were gavaged twice daily at 3.5-hour intervals for 8 weeks at a time using a 5-day-on/2-day-off schedule (Hsu et al., J Pharmacol Exp Ther. 2004; 311:770-777). During levodopa treatment, the monkeys were given fruits in the morning and food pellets 3.5 hours after the afternoon levodopa dose to optimize gastrointestinal absorption.
Dyskinesias were rated from videotapes, as described (Hsu et al., J Pharmacol Exp Ther. 2004; 311:770-777). This included a one hour baseline period (no drugs) from ˜8:00-9:00 AM, followed by two 3.5-hour treatment periods with levodopa starting at ˜9:00 AM and ˜12:30 PM. Dyskinesias were rated for 2-minute periods at 30-minute intervals by two independent raters blinded to treatment. They were rated on a scale of 0 (no dyskinesias) to 4; a score of 1 was indicative of subtle dyskinesias that were not sustained; 2, mild dyskinesias that were sustained; 3, moderate dyskinesias that impaired the ability to remain stationary; 4, severe dyskinesias that were generalized and incapacitating.
Data analyses: The levodopa treatment protocol used in the present study involved a 5-day-on/2-day-off schedule. Parkinsonian ratings were done on Monday and Friday of each week, with the score averaged over the two days. Dyskinesias ratings were determined by averaging the scores on Wednesday and Thursday of each week. All values are expressed as the mean±SE of the indicated number of animals. Results were compared using paired t-tests or analysis of variance (ANOVA) followed by Bonferroni multiple comparison post hoc test, using Prism® program (GraphPad Software, Inc, San Diego, Calif.). A level of 0.05 was considered significant.
Materials and methods were the same as in example 1.
A crossover study, was then conducted, in which the animals originally receiving nicotine were given vehicle (n=3), while the vehicle-treated animals were now administered nicotine (n=4). Levodopa treatment was stopped. […] Monkeys that had previously received nicotine were placed on vehicle drinking water for the same time period. All monkeys were then treated with levodopa (5 mg/kg, twice daily 3.5 hours apart) for a subsequent 8-week period. Since both groups of monkeys had previously received levodopa, they were termed levodopa-primed.

Assay [1] relates to 6-hydroxydopamine-lesioned rats. The method, then:
Animal model—6-Hydroxydopamine lesioning. We used the 6-hydroxydopamine lesioned rat model of nigrostriatal damage described by Cenci and colleagues (Cenci et al., 1998 Eur J Neurosci 10:2694-2706; Cenci et al., 2002 Nat Rev Neurosci 3:574-579). Adult male Sprague-Dawley rats were anesthetized with isofluorane, and then placed in a Kopf stereotaxic instrument. Burr holes were drilled through the skull and an intracranial injection of 6 μg 6-hydroxydopamine (2 μg/μl) stereotaxically injected at two separate sites into the right ascending dopamine fiber bundle, for a total of 12 μg 6-hydroxydopamine. The coordinates for the position of these two lesion sites were as follows relative to the Bregma and dural surface: (1) anteroposterior, −4.4; lateral, 1.2; ventral, 7.8; tooth bar at −2.4; (2) anteroposterior, −4.0; lateral, 0.75; ventral, 8.0; tooth bar at +3.4 (Cenci et al., 1998 Eur J Neurosci 10:2694-2706; Cenci et al., 2002 Nat Rev Neurosci 3:574-579). All procedures conformed to the NIH Guide for the Care and Use of Laboratory Animals and were approved by the Institutional Animal Care and Use Committee.
Nicotine treatment regimen. The rats were first given a drinking solution containing 1% saccharin for 3-4 days (FIG. 8). Nicotine was then added at a concentration of 25 μg/ml, and increased to 50 μg/ml 3-4 days later. Animals were maintained on this dose for 3 weeks. L-dopa treatment was then initiated, as below, with the nicotine dosing continued.
L-dopa treatment and behavioral testing for AIMs. Rats received single daily intraperitoneal injections of 8 mg/kg L-dopa methyl ester plus 15 mg/kg benserazide for 3 weeks (FIG. 8), as described (Cenci et al., 1998 Eur J Neurosci 10:2694-2706; Cenci et al., 2002 Nat Rev Neurosci 3:574-579). Abnormal involuntary movements (AIMs) after daily LDOPA injection were then quantified using the scale developed by Cenci and colleagues (Cenci et al., 1998 Eur J Neurosci 10:2694-2706; Cenci et al., 2002 Nat Rev Neurosci 3:574-579), as previously done in our laboratory (Cox et al., 2007, Exp. Neurol.). Rats were placed in a Rotomax test chamber. They were then scored on a scale from 0 to 4: 1=occasional; 2=frequent; 3=continuous but interrupted by sensory distraction; 4=continuous, severe, not interrupted by sensory distraction. The rating categories were as follows; (1) axial dystonia, consisting of twisting posturing of the head and neck; (2) orolingual dyskinesia, with stereotyped jaw movements and contralateral tongue protrusion and (3) forelimb movements, with dystonic movements of the contralateral forelimb. They were also assessed for locomotive dyskinesia, or increased locomotion with contralateral side bias; however, these scores were not included because the interpretation of this motor response is not clear (Papa et al., 1994 Brain Res 662; 69-74; Cenci et al., 1998 Eur J Neurosci 10:2694-2706).
Locomotive dyskinesias are distinct from turning behavior described above. […] The maximum possible score in each session was thus 108 (maximum score per observation=12; number of observations per session=9). Rats were evaluated by two raters, one blinded to treatment.
Data analyses. Statistical significance was determined using Student's t-tests or ANOVA followed by Bonferroni post hoc tests, as appropriate. Data are mean±SEM. A p level of 0.05 was considered significant.

Assay [2] relates to corticostriatal slices from nonhuman primates. Particulars: nicotine treatment.
Text: Brain slices at the level of the globus pallidus have generally been used as they incorporate many of the structures present in basal ganglia motor circuits. This includes glutamatergic inputs from the cortex that densely innervate striatal medium spiny GABAergic neurons and are a determinant of neuronal activity in striatal projection neurons. Synaptic plasticity, defined as long-lasting changes in the efficacy of synaptic transmission, has been identified in corticostriatal slices in vitro in the form of long-term potentiation (LTP), long-term depression (LTD) and depotentiation. In slices from unlesioned rats, high-frequency stimulation (HFS) of glutamatergic corticostriatal afferent fibers can induce both LTD and LTP in striatal medium spiny neurons, most likely due to a release of striatal glutamate which triggers dopamine release. Stimulation of both D1 and D2 receptors is required for the induction of LTD, whereas these two receptor subtypes play opposing roles in LTP.

Take `CN1CCCC1c1cccnc1` (stereo not drawn) [Nicotine, S-3-(1-methyl-2-pyrrolidinyl)pyridine]: in the assay with levodopa-primed monkeys (animals removed from nicotine treatment, week 4, 6 and 8 of levodopa treatment), the “total dyskinetic scores after removal of nicotine” value is listed as “significantly enhanced”. In the assay with levodopa-primed monkeys (levodopa-primed monkeys), the reduction of dyskinesias is about 35%. For the same molecule, in the assay on levodopa-primed monkeys (levodopa-primed monkeys switched to nicotine), the duration of dyskinesias entry is recorded as “decrease”. In the assay on levodopa-primed monkeys (levodopa-primed monkeys switched to nicotine, last 4 weeks of levodopa treatment), the peak dyskinesias result is “significantly reduced”. Also, in the assay on levodopa-primed monkeys (levodopa-primed monkeys switched to nicotine, vs same animal before crossover, all time points, paired t-tests), the total dyskinesias result is on record as “significantly reduced”. Also, the “total AIMs” value in assay [1] (25 μg/ml nicotine in the drinking water, two and four weeks after dose lowering, pooled) is “reduction in AIMs was sustained”. The “total AIM scores” value in assay [1] (50 μg/ml nicotine in drinking water, after 3 weeks of L-dopa 8 mg/kg ip, entire 3-hour period) is reported as “reduction”. Moreover, in assay [1] (3 and 6-8 week time points), the oral dyskinesias entry is on record as “trend for a decrease”. Moreover, in assay [1] (3 and 6-8 week time points, both doses of nicotine (50 and 25 μg/ml)), the forelimb dyskinesias entry is given as “significant decreases”. For the same molecule, the axial dyskinesias result in assay [1] (6-8 week time point) was “significant decreases”. Also, the “persistence of the decline in AIMs with L-dopa treatment” value in assay [1] (25 and 50 μg/ml in the drinking water) is “at least 2 months”. Further, the “long-term depression (LTD) lost as a result of nigrostriatal damage” value in assay [2] was “restores”.

For the origin of these results see US7718677B2, “Methods and compositions for reduction of side effects of therapeutic treatments” (priority 2007, dated 2010).
